Reference: patent US20150335016A1, “Herbicidal Composition Comprising a Cornexistin” (BASF SE, priority 2012, published 2015)

Columns and labels:
Assay in all cases: Greenhouse post-emergence herbicidal test
Format in all cases: in vivo
[1] = system: AMARE (Amaranthus retroflexus)
Description: (§1) The culture containers used were plastic pots containing loamy sand with approximately 2-3.0% of organic matter. The seeds of the test plants were sown separately for each species.
(§2) For the post-emergence treatment, the test plants were grown to a plant height of from 3 to 15 cm, depending on the plant habit, and only then treated with the active compounds which had been suspended or emulsified in water. To this end, the test plants were either sown directly, and grown in the same containers, or they were first grown separately as seedlings and transplanted into the test containers a few days prior to treatment.
(§3) Depending on the species, the plants were kept at 10-25° C. and 20-35° C., respectively.
(§4) The test period extended over 2 to 4 weeks. During this time, the plants were tended and their response to the individual treatments was evaluated.
(§5) Evaluation was carried out using a scale from 0 to 100. 100 means no emergence of the plants, or complete destruction of at least the above-ground parts, and 0 means no damage or normal course of growth. A good herbicidal activity is given at values of at least 70, and very good herbicidal activity is given at values of at least 85.
(§6) In the examples below, using the method of S. R. Colby (1967) “Calculating synergistic and antagonistic responses of herbicide combinations”, Weeds 15, p. 22ff., the value E, which is expected if the activity of the individual active compounds is only additive, was calculated.
(§7) where • X=percent activity using active compound A at an application rate a; • Y=percent activity using active compound B at an application rate b; • E=expected activity (in %) by A+B at application rates a+b.
(§8) If the value found experimentally is higher than the value E calculated according to Colby, a synergistic effect is present.
(§9) For preparation of the mixtures herbicides A were used in form of an aqueous solution comprising 22.5% by weight of the respective herbicide A. The herbicides B were used in form of the respective commercially available formulations as identified below. If appropriate, the adjuvant DASH® HC was added to the mixtures.
(§10) The respective mixtures of active ingredients were introduced into the spray liquor used for applying the active compound. In the examples, the solvent used was water.

[2] = system: CHEAL (Chenopodium album)
Description: as §1, §2, §3, §4, §5, §6, §7, §8, §9, §10

[3] = system: DIGSA (Digitaria sanguinales)
Description: as §1, §2, §3, §4, §5, §6, §7, §8, §9, §10

[4] = system: PANMI (Panicum miliaceum L.)
Description: as §1, §2, §3, §4, §5, §6, §7, §8, §9, §10

[5] = system: BRAPP (Urochloa platyphylla)
Description: as §1, §2, §3, §4, §5, §6, §7, §8, §9, §10

[6] = system: COMBE (Commelina benghalensis)
Description: as §1, §2, §3, §4, §5, §6, §7, §8, §9, §10

[7] = system: SETFA (Setaria faberi)
Description: as §1, §2, §3, §4, §5, §6, §7, §8, §9, §10

[8] = system: AMBEL (Ambrosia artemisiifolia)
Description: as §1, §2, §3, §4, §5, §6, §7, §8, §9, §10

[9] = system: ABUTH (Abutilon theophrasti)
Description: as §1, §2, §3, §4, §5, §6, §7, §8, §9, §10

[10] = system: ERICA (Erigeron canadensis)
Description: as §1, §2, §3, §4, §5, §6, §7, §8, §9, §10

[11] = system: POLPE (Polygonum persicaria)
Description: as §1, §2, §3, §4, §5, §6, §7, §8, §9, §10

[12] = Example 2, post-emergence, B.49 75 g/ha a.i.
[13] = Example 4, post-emergence, B.30 12.5 g/ha a.i.
[14] = Example 5, post-emergence, B.55 2.5 g/ha a.i.
[15] = Example 1, post-emergence; a1) 125 g/ha a.i.
[16] = Example 2, post-emergence; a1) 62.5 g/ha a.i.
[17] = Example 5, post-emergence; a1) 31.25 g/ha a.i.
[18] = Example 4, post-emergence; a1) 125 g/ha a.i.
[19] = Example 1, post-emergence, B.17 62.5 g/ha a.i.

CCc1cccc(CC)c1N(COC)C(=O)CCl [B.49, alachlor]
herbicidal activity against AMARE found [1, 12]: 30% | herbicidal activity against CHEAL found [2, 12]: 0% | herbicidal activity against DIGSA found [3, 12]: 40% | herbicidal activity against PANMI found [4, 12]: 45%

Cn1nc(C(F)(F)F)c(CS(=O)(=O)C2=NOC(C)(C)C2)c1OC(F)F [B.30, pyroxasulfone]
herbicidal activity against BRAPP found [5, 13]: 50% | herbicidal activity against COMBE found [6, 13]: 45% | herbicidal activity against SETFA found [7, 13]: 40%

COC(=O)c1ccccc1S(=O)(=O)NC(=O)Nc1nc(C)nc(OC)n1 [B.55, metsulfuron-methyl]
herbicidal activity against AMBEL found [8, 14]: 75% | herbicidal activity against CHEAL found [2, 14]: 40%

C/C=C1/CC2=C(C(=O)OC2=O)[C@H](CCC)[C@H](O)C(=O)C[C@@H]1O [a1), cornexistin]
herbicidal activity against ABUTH found [9, 15]: 50% | herbicidal activity against AMARE found [1, 16]: 50% | herbicidal activity against AMBEL found [8, 15]: 65% | herbicidal activity against AMBEL found [8, 17]: 80% | herbicidal activity against BRAPP found [5, 18]: 50% | herbicidal activity against CHEAL found [2, 16]: 90% | herbicidal activity against CHEAL found [2, 17]: 70% | herbicidal activity against COMBE found [6, 18]: 55% | herbicidal activity against DIGSA found [3, 16]: 55% | herbicidal activity against ERICA found [10, 15]: 40% | herbicidal activity against ERICA found ([10]; Example 3, post-emergence, heading: +1% by weight DASH HC; a1) 62.5 g/ha a.i.): 60% | herbicidal activity against PANMI found [4, 16]: 80% | herbicidal activity against POLPE found [11, 15]: 60% | herbicidal activity against SETFA found [7, 18]: 80%

COCc1cnc(C2=NC(C)(C(C)C)C(=O)N2)c(C(=O)O)c1 (stereo not shown) [B.3, imazamox]
herbicidal activity against ERICA found ([10]; Example 3, post-emergence, heading: +1% by weight DASH HC, B.3 9 g/ha a.i.): 90%

CC(C)N1C(=O)c2ccccc2NS1(=O)=O [B.17, bentazone]
herbicidal activity against ABUTH found [9, 19]: 40% | herbicidal activity against AMBEL found [8, 19]: 30% | herbicidal activity against ERICA found [10, 19]: 70% | herbicidal activity against POLPE found [11, 19]: 55%
